Measured values as given in paper PMC8621101, “Inhibition of XPO-1 Mediated Nuclear Export through the Michael-Acceptor Character of Chalcones” (Pharmaceuticals, 2021).
Where “and” joins values, the source holds several entries; their conditions need not be identical. Identical values can stand only once.

How the values were obtained:
K-562 cells = test: Cell proliferation assay (IncuCyte confluence), K-562; format: cell-based; details: Homo sapiens, K562; K-562 chronic myeloid leukemia; 72 h; mean of two independent experiments ± SEM; read-out: IC50 antiproliferative activity K-562
Method: (§1) Cancer cell lines HCT-116, NCI-H460, HL-60, K-562 and Z-138 were acquired from the American Type Culture Collection (ATCC, Manassas, VA, USA). The DND-41 cell line was purchased from the Deutsche Sammlung von Mikroorganismen und Zellkulturen (DSMZ Leibniz-Institut, Brunswick, Germany), and the HAP-1 cell line was ordered from Horizon Discovery (Horizon Discovery Group, Water Beach, UK). All cell lines were cultured as recommended by the suppliers. Culture media were purchased from Gibco Life Technologies and supplemented with 10% fetal bovine serum (HyClone, GE Healthcare Life Sciences, Chicago, Illinois, USA).
(§2) Adherent cell lines HCT-116, NCI-H460 and Hap-1 cells were seeded at a density between 500 and 1500 cells per well in 384-well tissue culture plates (Greiner). After overnight incubation, cells were treated with different concentrations of the test compounds. Suspension cell lines HL-60, K-562, Z-138 and DND-41 were seeded at densities ranging from 2500 to 5500 cells per well in 384-well culture plates containing the test compounds at the same concentration points.

DND-41 cells = test: Cell proliferation assay (IncuCyte confluence), DND-41; format: cell-based; details: DND41; DND-41 acute lymphoblastic leukemia; 72 h; mean of two independent experiments ± SEM; read-out: IC50 antiproliferative activity DND-41
Method: as §1, §2

XPO1 = target: T1, XPO1 (Homo sapiens, UniProt O14980); test: XPO1 phenotypic reporter assay in HeLa NLSSV40-AcGFP-NESPKI cells; format: cell-based; details: HeLa GFP reporter cell line; 2 h treatment; mean ± SEM of two independent experiments; read-out: XPO1 inhibition IC50
T1 construct: the compounds were assayed in a reporter cell line based on the subcellular localization of a XPO1-dependent GFP reporter cargo protein; endogenous in cells; host or cells: HeLa cells stably transfected with the NLSSV40-AcGFP-NESPKI reporter (only the reporter cargo is transfected, not XPO1)
Method: Stably transfected HeLa NLSSV40-AcGFP-NESPKI were cultured as described in Vercruysse et al.
To study the XPO1-mediated nuclear export, stably transfected HeLa NLSSV40-AcGFP-NESPKI reporter cells were seeded at 8000 cells per well in 96-well all clear tissue culture plates (TPP). After overnight incubation, cells were treated with different doses of compound or solvent (DMSO) for 2 h and then fixed and counterstained with DAPI. Fluorescence was read on an ArrayScan XTI High Content Reader (Thermo Fisher Scientific, Waltham, MA, USA). Nuclear and cytoplasmic compartments were segmented and their average pixel intensities in the green channel were quantitated employing the HCS Studio software. Genedata Screener software was used for dose-response curve fitting, and calculation of EC50 values was based on the percentage of cells having a predominant nuclear localisation (ratio of nuclear to cytoplasmic signal equal or above 1.4) of the reporter construct. Compounds were tested in two independent experiments and represented as mean ± SEM.

[1] = GSH reactivity assay (HPLC, DTNB quench); format: physicochemical; details: 500 µM compound, 5 mM GSH, 37 °C; for Reaction with GSH (hetero-Michael addition), qualitative: PBS pH 7.4 with EDTA:DMSO 1:1; for Reversibility of GSH adducts (retro-Michael), qualitative: longer incubation
Method: In order to determine if these chalcones could react with thiol groups through a hetero-Michael addition reaction, a few selected compounds (9, 10, 13 and 18) were incubated with glutathione (GSH). After different incubation times, the reactions were quenched by adding 5,5′-dithiobis(2-nitrobenzoic acid) (DTNB, Ellman´s reagent) (1:1 ratio with respect to the initial concentration of GSH). The course of the reaction was followed by HPLC, adapting reported procedures. […] Thus, although this assay is only qualitative, the tendency observed among these chalcones nicely fits the reactivity described for α-X-2´3,4,4´-tetramethylchalcones.
A 500 µM sample of the tested compound was incubated with 5 mM reduced L-glutathione for 24 h at 37 °C with a final volume of 200 μL. As a solvent system, 20 mM PBS buffer pH 7.4 with 2 mM EDTA:DMSO (1:1) was used. To perform the assay, stock solutions of 20 mM of the chalcones (9, 10, 13 and 18) and 15 mM of reduced L-glutathione were freshly prepared for every experiment and then diluted properly to give the final electrophile:nucleophile ratio (1:10). A 5 mM solution of 5,5′-dithiobis(2-nitrobenzoic acid) (DTNB) was prepared in the same solvent system to quench the reaction. After different time points (10 min, 1 h, 4 h and 24 h), an aliquot of 20 μL of the incubation mixture was quenched by adding 20 μL of the DTNB stock solution, mixed thoroughly, and then analyzed by HPLC. HPLC analysis was performed in Agilent 1120 compact LC, column ACE 5 C18-300 (15 cm × 4.6 mm); UV detection was performed at λ = 254 nm. Solvents used were acetonitrile for bottle A and H2O (containing 0.05% TFA) for bottle B, and the flow rate was 1mL/min. The gradients used were: (A) incubations with chalcone 9: from 10% to 80% of solvent A in 10 min; (B) incubations with chalcones 10 and 18: from 10% to 100% of solvent A in 10 min. The new peaks were analysed by LC-MS. As controls, a 500 μM solution of the α,β-unsaturated compound was also analysed, and a 5 mM reduced L-glutathione solution was quenched by adding DNTB at the same time points. In general, after 6 h of incubation, no GSH was detected.

[2] = system: panel of cancer cell lines; test: Antiproliferative activity, panel of cancer cell lines; format: cell-based; details: for Fold less potent than KPT-330 (antiproliferative IC50): all cell lines tested; for Antiproliferative activity, in words: panel of cancer cell lines
Method: as §2

NCI-H460 cells = test: Cell proliferation assay (IncuCyte confluence), NCI-H460; format: cell-based; details: Homo sapiens; NCI-H460 lung carcinoma; 72 h; mean of two independent experiments ± SEM; read-out: IC50 antiproliferative activity NCI-H460
Method: as §1, §2

T1 sequence (O14980 whole entry): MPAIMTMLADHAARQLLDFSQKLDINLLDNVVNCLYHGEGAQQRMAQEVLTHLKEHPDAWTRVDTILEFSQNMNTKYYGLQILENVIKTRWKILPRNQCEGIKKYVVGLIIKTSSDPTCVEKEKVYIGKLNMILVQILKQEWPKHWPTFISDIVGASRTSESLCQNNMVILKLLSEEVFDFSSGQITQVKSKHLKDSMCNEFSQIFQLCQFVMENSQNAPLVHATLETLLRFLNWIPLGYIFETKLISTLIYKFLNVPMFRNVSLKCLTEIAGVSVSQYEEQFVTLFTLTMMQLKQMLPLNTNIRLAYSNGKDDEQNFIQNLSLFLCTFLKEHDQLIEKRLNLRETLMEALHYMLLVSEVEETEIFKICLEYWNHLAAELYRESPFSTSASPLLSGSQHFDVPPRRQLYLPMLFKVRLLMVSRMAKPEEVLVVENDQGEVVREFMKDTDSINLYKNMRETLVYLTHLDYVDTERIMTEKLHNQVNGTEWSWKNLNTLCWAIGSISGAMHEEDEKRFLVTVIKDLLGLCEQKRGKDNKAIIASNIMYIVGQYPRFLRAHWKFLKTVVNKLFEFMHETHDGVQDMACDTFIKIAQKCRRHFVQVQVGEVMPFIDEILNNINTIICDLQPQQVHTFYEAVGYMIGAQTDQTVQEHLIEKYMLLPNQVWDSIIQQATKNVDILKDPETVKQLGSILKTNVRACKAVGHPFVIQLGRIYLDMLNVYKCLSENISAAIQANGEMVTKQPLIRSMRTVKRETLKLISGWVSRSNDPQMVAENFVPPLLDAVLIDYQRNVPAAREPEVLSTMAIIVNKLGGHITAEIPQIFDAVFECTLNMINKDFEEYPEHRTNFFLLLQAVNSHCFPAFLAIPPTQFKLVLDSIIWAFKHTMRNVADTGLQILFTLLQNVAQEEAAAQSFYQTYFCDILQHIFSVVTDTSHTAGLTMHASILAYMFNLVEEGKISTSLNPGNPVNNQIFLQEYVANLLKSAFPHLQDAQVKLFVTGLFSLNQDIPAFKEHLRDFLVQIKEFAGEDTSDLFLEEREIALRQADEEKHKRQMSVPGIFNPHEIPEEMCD

Row | SMILES | IC50 (K-562 cells) [µM] | IC50 (DND-41 cells) [µM] | IC50 (XPO1) | Reaction with GSH (hetero-Michael addition), qualitative [1] | Reversibility of GSH adducts (retro-Michael), qualitative [1] | Fold less potent than KPT-330 (antiproliferative IC50) [2] | Antiproliferative activity, in words [2] | IC50 (NCI-H460 cells) [µM]
1 | COc1cc(OC)cc(C(=O)/C=C/c2cncnc2)c1 [Compound 10, (E)-1-(3′,5′-Dimethoxyphenyl)-3-(pyrimidin-5′’-yl)prop-2-en-1-one] | 7.2 ± 1.9 | 1.5 ± 0.2 | 0.55 ± 0.19 µM | quickly reacted with GSH | underwent a retro-Michael addition reaction | 5- to 30 fold | single digit µM IC50 values | 3.5 ± 1.5
2 | O=C(/C=C/c1cncnc1)c1ccc2ccccc2c1 [Compound 9, (E)-1-(Naphthalen-2-yl)-3-(pyrimidin-5-yl)prop-2-en-1-one] | 1.8 ± 0.08 | 2.1 ± 0.5 | 2.5 µM and 2.46 µM | quickly reacted with GSH | underwent a retro-Michael addition reaction | 5- to 30 fold | single digit µM IC50 values | 2.1 ± 0.1
